The source of these data is US4619941A, “N-[(1H-imidazol-1-yl)alkyl]-1H-indolecarboxamides useful as thromboxane synthetase inhibitors and antihypertensive agents” (American Cyanamid Company, priority 1984, dated 1986).

One test concerns the target T1, thromboxane synthetase (Rattus norvegicus, UniProt P49430).
T1 construct: The platelets were isolated by centrifuging the PRP for 10 minutes at 1060 xg; endogenous in cells; host or cells: washed platelets from arterial blood of Okamoto-Aoki spontaneously hypertensive rats (Taconic Farms), 19 to 24 weeks old
T1 sequence (P49430 1-533): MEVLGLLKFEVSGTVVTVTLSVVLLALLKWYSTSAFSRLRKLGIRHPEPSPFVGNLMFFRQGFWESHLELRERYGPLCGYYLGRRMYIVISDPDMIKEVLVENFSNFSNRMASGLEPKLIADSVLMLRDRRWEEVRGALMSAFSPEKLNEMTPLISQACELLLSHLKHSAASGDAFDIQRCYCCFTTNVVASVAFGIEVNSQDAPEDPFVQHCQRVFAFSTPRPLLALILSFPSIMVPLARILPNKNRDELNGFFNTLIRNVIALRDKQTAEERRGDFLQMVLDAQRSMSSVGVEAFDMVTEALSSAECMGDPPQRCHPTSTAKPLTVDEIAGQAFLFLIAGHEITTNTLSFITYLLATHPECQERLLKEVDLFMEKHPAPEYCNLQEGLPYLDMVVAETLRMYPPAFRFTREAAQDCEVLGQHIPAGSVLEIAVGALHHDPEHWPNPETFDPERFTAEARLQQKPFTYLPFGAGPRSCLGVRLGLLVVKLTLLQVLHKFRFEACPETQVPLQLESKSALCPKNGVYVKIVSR
Put plainly: Inhibition of thromboxane (TXA2) formation, determined as TXB2 formed by washed SHR platelets (direct RIA). It is filed as cell-based, Okamoto-Aoki spontaneously hypertensive rats (SHR). The note with it: Dose 10^-4 M, 10 minutes at 37° C., pH 7.4. Here is the method: The inhibition of thromboxane (TXA2) formation was studied by determining the concentration of thromboxane B2 (TXB2), the stable hydrolysis product of TXA2.
The blood was diluted with 3 ml cold saline and centrifuged at room temperature for 15 minutes at 460 xg. The platelet rich plasma (PRP) was separated. The platelets were isolated by centrifuging the PRP for 10 minutes at 1060 xg and were washed in 4 ml cold oxygenated Krebs phosphate buffer, pH 7.4. the chilled platelets recovered from centrifuging at 800 xg for 10 minutes were resuspended in oxygenated Krebs phosphate buffer and diluted to contain 4.5-6.0×10^4 platelets/μl. […] The samples were incubated for 10 minutes at 37° C. in a metabolic shaker. The reaction was terminated by immersing the tubes in an ice bath and adding 50 μl of 0.5 M citric acid. The samples were centrifuged for 10 minutes in a refrigerated centrifuge and the supernatants thus obtained were decanted and stored at -20° C. The TXB2 content for each sample was determined by a direct radioimmunoassay (RIA) utilizing a TXB2 specific RIA kit purchased from New England Nuclear, Boston, MA and expressed as pg TXB2 formed minute^-1 sample^-1, from which the percent inhibition of TXB2 formation was calculated.

The subject of test [1] is spontaneously hypertensive rats of the Okamoto strain. Put plainly: Hypotensive activity in spontaneously hypertensive rats, mean arterial blood pressure (method of Chan and Poorvin). It counts as in vivo. The note with it: by gavage, 100 mg/kg or less, second identical dose at 24 hours; measured 28 hours after initial dose; SHR average MABP 160±1.5 mm Hg. Here is the method:
Male, 16 week old, spontaneously hypertensive rats of the Okamoto strain, from Taconic Farms, Germantown, N.Y., having an average means arterial blood pressure of 160±1.5 mm of mercury are used in the test. One to three rats are used per test compound. A rat is dosed by gavage with a test compound, suspended in 2% pre-boiled starch at a concentration of 50 mg/ml, at a dose of 100 mg/kg of body weight or less with 0.9% sodium chloride loading at a dose of 25 ml/kg of body weight. A second identical dose of the test compound, without sodium chloride loading is given 24 hours later. At 28 hours after the initial dose the mean arterial blood pressure is measured by the method of Chan and Poorvin vide supra. The procedure is repeated in a second and third rat when necessary.

Usually inhibition stands for the drop in the measured response relative to a control, in per cent. Read a low inhibition as a weak effect. At thromboxane synthetase, `Cc1nccn1CCCNC(=O)c1cc2ccccc2n1C` [1-Methyl-N-[3-(2-methyl-1H-imidazol-1-yl)-propyl]-1H-indole-2-carboxamide] returned an inhibition at 100 µM of 56%.

Consider `Cc1cn(CCCNC(=O)c2cc3ccccc3n2C)cn1` [1-Methyl-N-[3-(4-methyl-1H-imidazol-1-yl)propyl]-1H-indole-2-carboxamide], for which the “MABP (mean arterial blood pressure)” value in test [1] is listed as 136 mm Hg. The compound further registered an inhibition at 100 µM on thromboxane synthetase of 85%.

As for `CC(CNC(=O)c1cc2cc(Cl)ccc2[nH]1)Cn1ccnc1` (stereo not drawn) [5-Chloro-N-[3-(1H-imidazol-1-yl)-2-methylpropyl]-1Hindole-2carboxamide], in test [1], the “MABP (mean arterial blood pressure)” value worked out at 123 mm Hg. For the same compound, at thromboxane synthetase, the inhibition at 100 µM amounted to 100%.

Regarding `CC(CCNC(=O)c1cc2cc(Cl)ccc2[nH]1)n1ccnc1` (stereo not drawn) [5-Chloro-N-[3-(1H-imidazol-1-yl)-butyl]-1H-indole-2-carboxamide], the “MABP (mean arterial blood pressure)” value in test [1] came out at 119 mm Hg. Further, the inhibition at 100 µM on thromboxane synthetase came out at 98%.

In turn, `O=C(NCCCn1ccnc1)c1cc2cc(Cl)ccc2[nH]1` [5-Chloro-N-[3-(1H-imidazol-1-yl)propyl]-1H-indole-2-carboxamide] had an inhibition at 100 µM at thromboxane synthetase of 95%.

In the case of `Cc1cn(CCCNC(=O)c2cc3cc(Cl)ccc3[nH]2)cn1` [5-Chloro-N-[3-(4-methyl-1H-imidazol-1-yl)propyl]-1H-indole-2-carboxamide], in test [1], the “MABP (mean arterial blood pressure)” value stood at 135 mm Hg. Further, the inhibition at 100 µM against thromboxane synthetase is 100%.

Take `O=C(NCCCCn1ccnc1)c1cc2cc(Cl)ccc2[nH]1` [5-Chloro-N-[4-(1H-imidazol-1-yl)butyl]-1H-indole-2-carboxamide]: in test [1], the “MABP (mean arterial blood pressure)” value came to 118 mm Hg.

For `O=C(NCCCCCn1ccnc1)c1cc2cc(Cl)ccc2[nH]1` [5-Chloro-N-[5-(1H-imidazol-1-yl)pentyl]-1H-indole-2-carboxamide], in test [1], the “MABP (mean arterial blood pressure)” value is on record as 124 mm Hg.

As for `O=C(NCCCCCCCCn1ccnc1)c1cc2cc(Cl)ccc2[nH]1` [5-Chloro-N-[8-(1H-imidazol-1-yl)octyl]-1H-indole-2-carboxamide], the inhibition at 100 µM against thromboxane synthetase is 66%.

For `COc1ccc2[nH]c(C(=O)NCCCn3ccnc3C)cc2c1` [5-Methoxy-N-[3-(2-methyl-1H-imidazol-1-yl)propyl]-1H-indole-2-carboxamide], the inhibition at 100 µM at thromboxane synthetase was 49%.

As for `COc1ccc2[nH]c(C(=O)NCCCCn3ccnc3)cc2c1` [5-Methoxy-N-[4-(1H-imidazol-1-yl)butyl]-1H-indole-2-carboxamide], in test [1], the “MABP (mean arterial blood pressure)” value stood at 130 mm Hg. Testing at 100 µM on thromboxane synthetase gave an inhibition of 100%.

At thromboxane synthetase, `Cn1c(C(=O)NCCCn2ccnc2)cc2ccccc21` [N-[3-(1H-Imidazol-1-yl)propyl]-1-methyl-1H-indole-2-carboxamide] gave an inhibition at 100 µM of 88%.

For the compound `O=C(NCCCn1ccnc1)c1cc2ccccc2[nH]1` [N-[3-(1H-Imidazol-1-yl)propyl]-1H-indole-2-carboxamide], the “MABP (mean arterial blood pressure)” value in test [1] is 114 mm Hg. Moreover, 100 µM produced 94% inhibition on thromboxane synthetase.

For the compound `O=C(NCCCn1ccnc1)c1ccc2[nH]ccc2c1` [N-[3-(1H-Imidazol-1-yl)propyl]-1H-indole-5-carboxamide], the “MABP (mean arterial blood pressure)” value in test [1] is 133 mm Hg.

At thromboxane synthetase, `COc1ccc2[nH]c(C(=O)NCCCn3ccnc3)cc2c1` [N-[3-(1H-Imidazol-1-yl)propyl]-5-methoxy-1H-indole-2-carboxamide] registered an inhibition at 100 µM of 96%.

Take `Cc1nccn1CCCNC(=O)c1cc2ccccc2[nH]1` [N-[3-(2-Methyl-1H-imidazol-1-yl)propyl]-1H-indole2-carboxamide]: the inhibition at 100 µM against thromboxane synthetase was 44%.

At thromboxane synthetase, `O=C(NCCCn1ccnc1-c1ccccc1)c1cc2ccccc2[nH]1` [N-[3-(2-Phenyl-1H-imidazol-1-yl)propyl]-1H-indole-2-carboxamide] displayed an inhibition at 100 µM of 91%.

Turning to `Cc1cn(CCCNC(=O)c2cc3ccccc3[nH]2)cn1` [N-[3-(4-Methyl-1H-imidazol-1-yl)propyl]-1H-indole-2-carboxamide], in test [1], the “MABP (mean arterial blood pressure)” value came to 131 mm Hg. Further, testing at 100 µM against thromboxane synthetase gave an inhibition of 100%.

Regarding `O=C(NCCCCn1ccnc1)c1cc2ccccc2[nH]1` [N-[4-(1H-Imidazol-1-yl)butyl]-1H-indole-2-carboxamide], the “MABP (mean arterial blood pressure)” value in test [1] is 137 mm Hg. This compound yielded an inhibition at 100 µM against thromboxane synthetase of 100%.
